Consider eleven compounds from patent US9901571B2, “Tetrahydropyrazolopyridine derivatives as ghrelin receptor agonists” (RaQualia Pharma Inc., priority 2014, dated 2018).

A short description of series [1]: Half-life in human liver microsomes (HLM), HLM CLint. The following applies: for CLint scaled at 1 microM: human, human liver microsomes (XTreme 200), 1 microM test compound, 0.61 mg protein/mL HLM, pH 7.4, 37° C., read-out: HLM CLint (clearance in human liver microsome); for Ratio of HLM CLint over comparison 1: ratio between comparison compound 1 and the example. Format: in vitro ADME. How it is done:
Half-Life in Human Liver Microsomes (HLM)
Test compounds (1 microM) are incubated with 1 mM MgCl2 and 0.61 mg protein/mL HLM (XTreme 200) in 100 mM phosphate buffer (pH 7.4) at 37° C. on the 96-deep well plate. An aliquot of samples is collected at […], where 0 […] the time when NADPH is added into the reaction mixture. Collected aliquots are extracted with acetonitrile solution containing an internal standard. The precipitated protein is spun down in centrifuge (2000 rpm, […]). The compound concentration in supernatant is measured by LC/MS/MS system.
The half-life value is obtained by plotting the natural logarithm of the peak area ratio of compound/internal standard versus time. The slope of the line of the best fit through the points yields the elimination rate constant (kel). This is converted to a half-life value using a following equation: Half-life=1n2/kel.

Series [2] addresses T1, human ghrelin receptor (Homo sapiens, UniProt Q92847).
T1 construct: expressed in transfected cells; host or cells: HEK293
Briefly: Ghrelin receptor agonistic activity induced Ca2+ influx in HEK293 cells stably expressing human ghrelin receptor. Format: cell-based. The note with it: 11-point dose-response. As to the method: Measurement of the ghrelin receptor agonistic activity induced Ca^2+ influx in HEK293 cells stably expressing human ghrelin receptor
HEK293 cells stably expressing human ghrelin receptor are maintained in Dulbecco's modified Eagle medium (high glucose) supplemented with 10% fetal bovine serum, 100 units/mL penicillin, 100 microg/mL streptomycin and 500 microg/mL G418 at 37° C. in a humidified incubator with 5% CO2 and grown to 60-80% confluence. The day before the assay, the cells are seeded on poly-D-lysine coated 384-well plates (BD FALCON) at a density of 10,000 cells per well and incubated overnight in incubator.
On the day of the assay, the cells are washed at three times with assay buffer (Hanks' balanced salt solution with 20 mM HEPES, pH7.4), and are incubated for 1 hour at room temperature to load 0.5 microM Fluo-4 AM reagent (Invitrogen).
After removing Fluo-4, and washing with assay buffer, the cells are added with various concentrations of the compounds. The changes in intracellular calcium concentration are monitored with the fluorescence imaging plate reader, FDSS6000 (Hamamatsu Photonics).
The EC50 values for compounds of the present invention are determined from 11-point dose-response studies. Curves are generated using the average of duplicate wells for each data point. Finally, the EC50 values are calculated using the best-fit dose curve determined by XLfit (ID Business Solutions Ltd).

T1 sequence (Q92847 whole entry): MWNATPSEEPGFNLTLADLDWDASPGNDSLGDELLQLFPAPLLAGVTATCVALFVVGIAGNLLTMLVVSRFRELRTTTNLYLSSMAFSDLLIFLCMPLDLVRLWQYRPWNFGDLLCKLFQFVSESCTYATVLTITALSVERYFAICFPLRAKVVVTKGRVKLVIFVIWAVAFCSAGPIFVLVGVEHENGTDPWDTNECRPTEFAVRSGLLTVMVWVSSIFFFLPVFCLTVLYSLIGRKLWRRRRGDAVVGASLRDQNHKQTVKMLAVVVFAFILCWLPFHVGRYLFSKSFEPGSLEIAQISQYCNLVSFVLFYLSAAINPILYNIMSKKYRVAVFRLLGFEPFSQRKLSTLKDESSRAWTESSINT

As for `CN1N=C2CCN(C(=O)[C@@H](CCc3ccccc3)NC(=O)C(C)(C)N)C[C@@]2(Cc2ccccc2)C1=O` [Example 2, 2-amino-N—((R)-1-((R)-3a-benzyl-2-methyl-3-oxo-3a,4,6,7-tetrahydro-2H-pyrazolo[4,3-c]pyridin-5(3H)-yl)-1-oxo-4-phenylbutan-2-yl)-2-methylpropanamide], in series [1], the CLint scaled at 1 microM is 54.5 mL/min/kg and the “Ratio of HLM CLint over comparison 1” value is on record as 2.4. In series [2], this compound registered an EC50 of less than 0.02 µM.
With `CN1N=C2CCN(C(=O)[C@@H](CCc3ccc(CO)cc3Cl)NC(=O)C(C)(C)N)C[C@@]2(Cc2ccccc2)C1=O` [Example 3, 2-amino-N—((R)-1-((R)-3a-benzyl-2-methyl-3-oxo-3a,4,6,7-tetrahydro-2H-pyrazolo[4,3-c]pyridin-5(3H)-yl)-4-(2-chloro-4-(hydroxymethyl)phenyl)-1-oxobutan-2-yl)-2-methylpropanamide], in series [1], the CLint scaled at 1 microM was determined as 43.5 mL/min/kg and the “Ratio of HLM CLint over comparison 1” value came out at 3.0. In series [2], this compound yielded a concentration for a half-maximal effect (EC50) of less than 0.02 µM.
Turning to `CN1N=C2CCN(C(=O)[C@@H](CCc3ccc(CO)cc3F)NC(=O)C(C)(C)N)C[C@@]2(Cc2ccccc2)C1=O` [Example 4, 2-amino-N—((R)-1-((R)-3a-benzyl-2-methyl-3-oxo-3a,4,6,7-tetrahydro-2H-pyrazolo[4,3-c]pyridin-5(3H)-yl)-4-(2-fluoro-4-(hydroxymethyl)phenyl)-1-oxobutan-2-yl)-2-methylpropanamide], in series [1], the CLint scaled at 1 microM is 21.7 mL/min/kg and the “Ratio of HLM CLint over comparison 1” value is 6.0. Also, in series [2], the EC50 is less than 0.02 µM.
In the same order, the values of `CN1N=C2CCN(C(=O)[C@@H](CCc3cc(CO)ccc3F)NC(=O)C(C)(C)N)C[C@@]2(Cc2ccccc2)C1=O` [Example 5, 2-amino-N—((R)-1-((R)-3a-benzyl-2-methyl-3-oxo-3a,4,6,7-tetrahydro-2H-pyrazolo[4,3-c]pyridin-5(3H)-yl)-4-(2-fluoro-5-(hydroxymethyl)phenyl)-1-oxobutan-2-yl)-2-methylpropanamide] are 44.6 mL/min/kg, 2.9 and less than 0.02 µM.
For `CN1N=C2CCN(C(=O)[C@@H](CCCc3cccc(CO)c3)NC(=O)C(C)(C)N)C[C@@]2(Cc2ccccc2)C1=O` [Example 7, 2-amino-N—((R)-1-((R)-3a-benzyl-2-methyl-3-oxo-3a,4,6,7-tetrahydro-2H-pyrazolo[4,3-c]pyridin-5(3H)-yl)-5-(3-(hydroxymethyl)phenyl)-1-oxopentan-2-yl)-2-methylpropanamide], in series [1], the CLint scaled at 1 microM is 53.5 mL/min/kg and the “Ratio of HLM CLint over comparison 1” value was determined as 2.4. The compound further displayed an EC50 in series [2] of less than 0.02 µM.
In the same order, the values of `CN1N=C2CCN(C(=O)[C@@H](CCCc3ccccc3CO)NC(=O)C(C)(C)N)C[C@@]2(Cc2ccccc2)C1=O` [Example 8, 2-amino-N—((R)-1-((R)-3a-benzyl-2-methyl-3-oxo-3a,4,6,7-tetrahydro-2H-pyrazolo[4,3-c]pyridin-5(3H)-yl)-5-(2-(hydroxymethyl)phenyl)-1-oxopentan-2-yl)-2-methylpropanamide] are 48.5 mL/min/kg, 2.7 and less than 0.02 µM.
In the same order, the values of `CN1N=C2CCN(C(=O)[C@@H](CCCc3ccccn3)NC(=O)C(C)(C)N)C[C@@]2(Cc2ccccc2)C1=O` [Example 9, 2-amino-N—((R)-1-((R)-3a-benzyl-2-methyl-3-oxo-3a,4,6,7-tetrahydro-2H-pyrazolo[4,3-c]pyridin-5(3H)-yl)-1-oxo-5-(pyridin-2-yl)pentan-2-yl)-2-methylpropanamide] are 19.7 mL/min/kg, 6.6 and less than 0.02 µM.
As for `CN1N=C2CCN(C(=O)[C@@H](CCCc3cccc(C(F)(F)F)n3)NC(=O)C(C)(C)N)C[C@@]2(Cc2ccccc2)C1=O` [Example 10, 2-amino-N—((R)-1-((R)-3a-benzyl-2-methyl-3-oxo-3a,4,6,7-tetrahydro-2H-pyrazolo[4,3-c]pyridin-5(3H)-yl)-1-oxo-5-(6-(trifluoromethyl)pyridin-2-yl)pentan-2-yl)-2-methylpropanamide], in series [1], the CLint scaled at 1 microM came to 44.2 mL/min/kg and the “Ratio of HLM CLint over comparison 1” value is reported as 2.9. The EC50 in series [2] was less than 0.02 µM.
In the case of `CN1N=C2CCN(C(=O)[C@@H](CCCc3cccc(C(F)F)n3)NC(=O)C(C)(C)N)C[C@@]2(Cc2ccccc2)C1=O` [Example 13, 2-amino-N—((R)-1-((R)-3a-benzyl-2-methyl-3-oxo-3a,4,6,7-tetrahydro-2H-pyrazolo[4,3-c]pyridin-5(3H)-yl)-5-(6-(difluoromethyl)pyridin-2-yl)-1-oxopentan-2-yl)-2-methylpropanamide], in series [1], the CLint scaled at 1 microM was found to be 36 mL/min/kg and the “Ratio of HLM CLint over comparison 1” value is given as 3.6. Moreover, in series [2], the EC50 is less than 0.02 µM.
In the same order, the values of `CC(C)(N)C(=O)N[C@H](CCc1ccccc1)C(=O)N1CCC2=NN(CC(F)(F)F)C(=O)[C@]2(Cc2ccccn2)C1` [Example 14, 2-amino-2-methyl-N—((R)-1-oxo-1-((R)-3-oxo-3a-(pyridin-2-ylmethyl)-2-(2,2,2-trifluoroethyl)-3a,4,6,7-tetrahydro-2H-pyrazolo[4,3-c]pyridin-5(3H)-yl)-4-phenylbutan-2-yl) propanamide] are 51.5 mL/min/kg, 2.5 and less than 0.02 µM.
In the same order, the values of `CC(C)(N)C(=O)N[C@H](CCc1ccc(F)cc1CO)C(=O)N1CCC2=NN(CC(F)(F)F)C(=O)[C@]2(Cc2ccccn2)C1` [Example 17, 2-amino-N—((R)-4-(4-fluoro-2-(hydroxymethyl)phenyl)-1-oxo-1-((R)-3-oxo-3a-(pyridin-2-ylmethyl)-2-(2,2,2-trifluoroethyl)-3a,4,6,7-tetrahydro-2H-pyrazolo[4,3-c]pyridin-5(3H)-yl)butan-2-yl)-2-methylpropanamide] are 56.7 mL/min/kg, 2.3 and less than 0.02 µM.
